{
  "source": "ChEMBL document CHEMBL4177603",
  "about": "(Bioorg Med Chem Lett, 2017)",
  "key": {"[1]": {"biological_target": "Endothelin-1 receptor (Homo sapiens) (UniProt P25101)", "sequence (P25101 whole entry)": "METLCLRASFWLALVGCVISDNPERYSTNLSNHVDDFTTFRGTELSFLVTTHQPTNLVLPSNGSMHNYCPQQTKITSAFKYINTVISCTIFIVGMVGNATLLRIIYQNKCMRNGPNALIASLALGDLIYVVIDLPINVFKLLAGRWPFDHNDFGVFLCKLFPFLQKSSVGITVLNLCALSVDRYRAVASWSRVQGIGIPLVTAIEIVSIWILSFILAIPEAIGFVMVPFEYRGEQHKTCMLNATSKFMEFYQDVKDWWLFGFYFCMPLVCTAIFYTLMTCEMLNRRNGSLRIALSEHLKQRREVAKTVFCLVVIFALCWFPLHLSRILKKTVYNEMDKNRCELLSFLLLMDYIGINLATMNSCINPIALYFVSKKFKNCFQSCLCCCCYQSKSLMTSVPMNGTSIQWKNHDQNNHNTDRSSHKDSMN", "assay": "Agonist activity at human ETA receptor expressed in SK-N-MC cells assessed as increase in calcium flux at 10 uM by fluorimetric method relative to control", "type": "functional, cell-based"}, "[2]": {"species_on_record": "Rattus norvegicus", "assay": "Displacement of [3H]AMPA from rat brain AMPA receptor at 10 uM after 60 mins by scintillation counting method"}, "[3]": {"biological_target": "Glutamate NMDA receptor (Rattus norvegicus) (UniProt P35439+Q00959+Q00960+Q00961+Q62645+Q8VHN2+Q9R1M7)", "assay": "Displacement of [3H]CGP 39653 from rat brain NMDA receptor at 10 uM after 60 mins by scintillation counting method"}, "[4]": {"biological_target": "5-hydroxytryptamine receptor 3A (Homo sapiens) (UniProt P46098)", "sequence (P46098 whole entry)": "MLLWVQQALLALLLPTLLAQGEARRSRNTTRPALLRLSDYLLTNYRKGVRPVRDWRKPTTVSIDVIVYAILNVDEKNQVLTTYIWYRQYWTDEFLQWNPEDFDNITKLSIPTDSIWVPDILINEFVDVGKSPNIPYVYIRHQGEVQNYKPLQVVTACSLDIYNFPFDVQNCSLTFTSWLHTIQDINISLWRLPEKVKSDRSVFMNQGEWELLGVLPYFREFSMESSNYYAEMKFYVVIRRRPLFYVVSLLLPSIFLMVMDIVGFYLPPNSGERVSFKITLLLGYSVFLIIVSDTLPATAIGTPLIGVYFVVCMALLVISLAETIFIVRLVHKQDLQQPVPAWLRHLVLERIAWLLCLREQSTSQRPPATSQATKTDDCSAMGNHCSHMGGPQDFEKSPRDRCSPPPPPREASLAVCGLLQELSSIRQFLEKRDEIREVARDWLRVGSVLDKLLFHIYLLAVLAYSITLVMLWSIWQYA", "assay": "Displacement of [3H]BRL 43694 from recombinant human 5-HT3 receptor at 10 uM measured after 120 mins by scintillation counting method"}, "[5]": {"biological_target": "Cytochrome P450 2C19 (Homo sapiens, UniProt P33261)", "sequence (P33261 whole entry)": "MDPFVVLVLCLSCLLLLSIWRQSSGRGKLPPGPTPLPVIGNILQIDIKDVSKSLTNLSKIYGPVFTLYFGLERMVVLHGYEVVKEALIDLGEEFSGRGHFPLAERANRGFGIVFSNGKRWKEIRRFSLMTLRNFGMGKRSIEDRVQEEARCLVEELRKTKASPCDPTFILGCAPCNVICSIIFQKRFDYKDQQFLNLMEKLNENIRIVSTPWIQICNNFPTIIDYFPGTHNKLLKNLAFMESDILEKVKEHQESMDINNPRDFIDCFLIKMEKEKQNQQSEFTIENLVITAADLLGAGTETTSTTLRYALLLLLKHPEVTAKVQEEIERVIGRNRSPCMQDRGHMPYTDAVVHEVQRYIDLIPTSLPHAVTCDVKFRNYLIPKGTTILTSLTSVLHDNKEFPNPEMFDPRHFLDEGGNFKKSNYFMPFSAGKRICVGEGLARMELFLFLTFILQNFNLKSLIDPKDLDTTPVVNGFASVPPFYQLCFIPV", "assay": "Inhibition of CYP2C19 (unknown origin)", "type": "ADME"}, "[6]": {"biological_target": "Kappa-type opioid receptor (Homo sapiens) (UniProt P41145)", "assay": "Agonist activity at human KOR assessed as increase in calcium flux at 10 uM by fluorimetric method relative to control", "type": "functional"}, "[7]": {"biological_target": "5-hydroxytryptamine receptor 4 (Homo sapiens) (UniProt Q13639)", "assay": "Agonist activity at recombinant human 5-HT4E expressed in CHOK1 cells assessed as increase in cAMP accumulation at 10 uM measured after 30 mins by HTRF assay relative to control", "type": "functional, cell-based"}, "[8]": {"biological_target": "T1, Muscarinic acetylcholine receptor M1 (Homo sapiens) (UniProt P11229)", "T1 sequence (whole entry)": "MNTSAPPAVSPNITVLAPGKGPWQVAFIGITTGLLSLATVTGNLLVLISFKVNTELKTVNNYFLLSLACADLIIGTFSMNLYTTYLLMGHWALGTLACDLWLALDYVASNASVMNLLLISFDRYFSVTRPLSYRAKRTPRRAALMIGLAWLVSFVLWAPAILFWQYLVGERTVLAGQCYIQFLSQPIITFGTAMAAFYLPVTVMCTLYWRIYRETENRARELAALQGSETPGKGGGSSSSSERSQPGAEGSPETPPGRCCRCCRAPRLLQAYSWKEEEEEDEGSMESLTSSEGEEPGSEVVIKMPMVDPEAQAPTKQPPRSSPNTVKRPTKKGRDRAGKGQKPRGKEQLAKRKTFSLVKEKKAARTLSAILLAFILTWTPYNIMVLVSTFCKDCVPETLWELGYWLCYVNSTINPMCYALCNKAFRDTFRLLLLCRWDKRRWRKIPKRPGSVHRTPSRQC", "assay": "Antagonist activity at human M1 receptor expressed in CHOK1 cells assessed as inhibition of acetylcholine-induced calcium flux at 10 uM by fluorimetric method relative to control", "type": "functional, cell-based"}, "[9]": {"assay": "Protein binding in rat plasma assessed as fraction unbound at 2 uM", "type": "ADME, cell-free"}, "[10]": {"assay": "Clearance in dog plasma at 0.3 mg/kg, iv via infusion for 0.5 hrs", "type": "ADME, organism-based, Canis lupus familiaris"}, "[11]": {"biological_target": "Cytochrome P450 2D6 (Homo sapiens, UniProt P10635)", "assay": "Inhibition of CYP2D6 (unknown origin)", "type": "ADME"}, "[12]": {"biological_target": "Sodium channel protein type 9 subunit alpha (Rattus norvegicus, UniProt O08562)", "sequence (O08562 whole entry)": "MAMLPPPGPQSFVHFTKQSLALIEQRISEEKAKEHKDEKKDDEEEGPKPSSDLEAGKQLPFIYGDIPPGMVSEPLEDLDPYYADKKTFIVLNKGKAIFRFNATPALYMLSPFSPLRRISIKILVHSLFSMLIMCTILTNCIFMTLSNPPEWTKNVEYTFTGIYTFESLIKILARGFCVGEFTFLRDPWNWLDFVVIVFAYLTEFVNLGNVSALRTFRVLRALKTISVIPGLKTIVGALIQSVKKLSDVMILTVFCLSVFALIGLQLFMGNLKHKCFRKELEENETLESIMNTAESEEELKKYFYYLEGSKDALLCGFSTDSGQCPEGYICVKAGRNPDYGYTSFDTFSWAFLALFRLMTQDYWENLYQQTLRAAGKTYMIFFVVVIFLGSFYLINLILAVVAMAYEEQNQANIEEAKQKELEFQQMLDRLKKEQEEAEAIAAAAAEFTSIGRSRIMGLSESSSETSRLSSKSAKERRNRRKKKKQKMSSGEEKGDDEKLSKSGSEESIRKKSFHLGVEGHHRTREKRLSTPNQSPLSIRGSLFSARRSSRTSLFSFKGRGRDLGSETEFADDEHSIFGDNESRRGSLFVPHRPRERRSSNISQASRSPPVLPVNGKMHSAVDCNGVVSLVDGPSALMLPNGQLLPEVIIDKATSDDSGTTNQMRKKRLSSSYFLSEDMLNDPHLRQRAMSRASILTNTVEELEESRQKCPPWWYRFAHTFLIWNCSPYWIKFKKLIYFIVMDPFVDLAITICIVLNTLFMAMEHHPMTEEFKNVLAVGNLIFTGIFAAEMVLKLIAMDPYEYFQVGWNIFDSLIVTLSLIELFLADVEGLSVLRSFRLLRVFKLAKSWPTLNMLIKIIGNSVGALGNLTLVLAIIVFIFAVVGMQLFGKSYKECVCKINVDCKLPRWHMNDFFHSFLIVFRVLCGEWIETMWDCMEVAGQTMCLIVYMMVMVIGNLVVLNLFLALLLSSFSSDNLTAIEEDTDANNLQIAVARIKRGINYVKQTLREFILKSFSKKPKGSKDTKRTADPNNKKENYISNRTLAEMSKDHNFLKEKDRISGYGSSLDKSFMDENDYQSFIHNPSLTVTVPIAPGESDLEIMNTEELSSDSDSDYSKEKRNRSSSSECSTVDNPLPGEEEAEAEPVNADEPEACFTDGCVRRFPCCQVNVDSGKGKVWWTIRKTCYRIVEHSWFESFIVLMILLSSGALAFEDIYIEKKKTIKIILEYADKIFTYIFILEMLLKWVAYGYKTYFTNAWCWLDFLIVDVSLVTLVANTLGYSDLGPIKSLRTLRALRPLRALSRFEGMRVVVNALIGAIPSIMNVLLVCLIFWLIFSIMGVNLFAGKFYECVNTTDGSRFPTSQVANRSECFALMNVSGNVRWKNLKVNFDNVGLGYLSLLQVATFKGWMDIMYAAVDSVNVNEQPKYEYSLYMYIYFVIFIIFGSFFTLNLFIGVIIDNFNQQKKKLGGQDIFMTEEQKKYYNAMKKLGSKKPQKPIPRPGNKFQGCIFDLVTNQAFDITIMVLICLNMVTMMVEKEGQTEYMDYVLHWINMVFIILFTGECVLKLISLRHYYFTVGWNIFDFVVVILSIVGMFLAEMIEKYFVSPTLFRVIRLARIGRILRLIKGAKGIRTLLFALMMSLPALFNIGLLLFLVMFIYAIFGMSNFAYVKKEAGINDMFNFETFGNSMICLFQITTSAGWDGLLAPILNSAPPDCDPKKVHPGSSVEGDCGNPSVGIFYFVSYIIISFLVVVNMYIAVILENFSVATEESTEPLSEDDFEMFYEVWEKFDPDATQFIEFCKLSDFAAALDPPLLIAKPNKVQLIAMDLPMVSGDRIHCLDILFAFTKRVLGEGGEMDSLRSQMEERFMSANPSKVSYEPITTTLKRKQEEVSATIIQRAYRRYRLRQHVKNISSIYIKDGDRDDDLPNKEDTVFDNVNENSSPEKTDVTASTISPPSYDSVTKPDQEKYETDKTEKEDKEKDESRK", "assay": "Inhibition of rat Nav1.7 expressed in HEK cells by patch clamp electrophysiology method", "type": "cell-based"}, "[13]": {"biological_target": "Peroxisome proliferator-activated receptor gamma (Homo sapiens) (UniProt P37231)", "sequence (P37231 whole entry)": "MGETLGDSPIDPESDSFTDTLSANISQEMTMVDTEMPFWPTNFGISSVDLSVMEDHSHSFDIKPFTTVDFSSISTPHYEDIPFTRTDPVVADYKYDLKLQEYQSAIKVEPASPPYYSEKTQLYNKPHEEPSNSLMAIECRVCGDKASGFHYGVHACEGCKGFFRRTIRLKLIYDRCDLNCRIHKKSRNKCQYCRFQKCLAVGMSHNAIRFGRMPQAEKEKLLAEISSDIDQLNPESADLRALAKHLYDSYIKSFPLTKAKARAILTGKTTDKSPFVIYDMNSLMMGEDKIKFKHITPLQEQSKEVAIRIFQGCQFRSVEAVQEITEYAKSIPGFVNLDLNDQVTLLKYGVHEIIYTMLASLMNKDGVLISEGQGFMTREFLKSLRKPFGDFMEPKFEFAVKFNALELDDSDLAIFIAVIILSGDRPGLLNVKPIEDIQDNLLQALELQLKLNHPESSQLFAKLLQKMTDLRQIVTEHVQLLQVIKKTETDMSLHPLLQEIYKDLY", "assay": "Displacement of [3H]rosiglitazone from recombinant human PPARgamma at 10 uM after 120 mins by scintillation counting method"}, "[14]": {"biological_target": "Cannabinoid receptor 1 (Homo sapiens) (UniProt P21554)", "assay": "Displacement of [3H]CP 55940 from recombinant human CB1 receptor at 10 uM after 120 mins by scintillation counting method"}, "[15]": {"assay": "Intrinsic clearance in human hepatocytes assessed per million cells", "type": "ADME, cell-based, Hepatocyte", "conditions": "read-out: CLH"}, "[16]": {"biological_target": "Sodium-dependent dopamine transporter (Homo sapiens, UniProt Q01959)", "assay": "Displacement of [3H]BTCP from recombinant human dopamine transporter at 10 uM after 120 mins by scintillation counting method"}, "[17]": {"biological_target": "Voltage-gated inwardly rectifying potassium channel KCNH2 (Homo sapiens, UniProt Q12809)", "sequence (Q12809 whole entry)": "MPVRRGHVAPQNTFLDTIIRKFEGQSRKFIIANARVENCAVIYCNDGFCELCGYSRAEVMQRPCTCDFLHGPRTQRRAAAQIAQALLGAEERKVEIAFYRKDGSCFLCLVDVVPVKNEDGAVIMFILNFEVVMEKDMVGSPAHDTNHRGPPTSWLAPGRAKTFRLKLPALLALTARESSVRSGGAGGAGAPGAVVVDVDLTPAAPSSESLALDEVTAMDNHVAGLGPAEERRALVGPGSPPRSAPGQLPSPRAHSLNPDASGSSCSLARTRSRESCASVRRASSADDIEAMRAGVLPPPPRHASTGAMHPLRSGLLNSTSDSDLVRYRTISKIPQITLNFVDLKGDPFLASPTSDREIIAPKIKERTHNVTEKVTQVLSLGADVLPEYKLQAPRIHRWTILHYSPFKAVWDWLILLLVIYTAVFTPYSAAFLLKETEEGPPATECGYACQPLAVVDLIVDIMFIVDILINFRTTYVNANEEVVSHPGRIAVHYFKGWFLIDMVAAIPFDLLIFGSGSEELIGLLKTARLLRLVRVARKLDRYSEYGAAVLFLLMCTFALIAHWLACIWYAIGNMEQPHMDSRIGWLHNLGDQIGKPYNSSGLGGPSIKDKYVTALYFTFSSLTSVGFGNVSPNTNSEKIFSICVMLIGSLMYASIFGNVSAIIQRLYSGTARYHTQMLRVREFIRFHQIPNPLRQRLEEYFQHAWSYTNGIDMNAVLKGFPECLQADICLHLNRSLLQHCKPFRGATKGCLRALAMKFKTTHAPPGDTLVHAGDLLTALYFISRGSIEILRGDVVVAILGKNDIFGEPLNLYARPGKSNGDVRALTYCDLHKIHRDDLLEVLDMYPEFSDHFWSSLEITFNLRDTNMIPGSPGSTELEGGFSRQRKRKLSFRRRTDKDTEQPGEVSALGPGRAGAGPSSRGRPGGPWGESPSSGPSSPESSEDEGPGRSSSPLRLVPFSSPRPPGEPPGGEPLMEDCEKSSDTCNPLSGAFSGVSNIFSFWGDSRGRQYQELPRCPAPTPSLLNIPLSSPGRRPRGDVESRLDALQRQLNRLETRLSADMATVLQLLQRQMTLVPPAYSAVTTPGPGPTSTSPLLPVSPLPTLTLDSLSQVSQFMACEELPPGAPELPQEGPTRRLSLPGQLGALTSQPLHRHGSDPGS", "assay": "Displacement of [3H]Dofetilide from recombinant human ERG after 60 mins by scintillation counting method"}, "[18]": {"assay": "Cytotoxicity against human THLE cells", "type": "cell-based"}},
  "data": [
    {"molecule": "N#Cc1cc(S(=O)(=O)Nc2ncns2)ccc1Oc1ccc(-c2cccc(C(F)(F)F)c2)cc1-c1ccnc(CNCCC2CCNCC2)c1", "values": [
      {"measurement": "Activity", "setting": "[1]", "value": 8, "unit": "%"},
      {"measurement": "inhibition", "setting": "[2]", "value": -1, "unit": "%"},
      {"measurement": "inhibition", "setting": "[3]", "value": 21, "unit": "%"},
      {"measurement": "inhibition", "setting": "[4]", "value": 27, "unit": "%"},
      {"measurement": "IC50", "setting": "[5]", "value": 1.32, "unit": "µM"},
      {"measurement": "Activity", "setting": "[6]", "value": 15, "unit": "%"},
      {"measurement": "Activity", "setting": "[7]", "value": 0, "unit": "%"},
      {"measurement": "inhibition", "setting": "[8]", "value": 7, "unit": "%"},
      {"measurement": "fraction unbound at 2 µM", "setting": "[9]", "value": 0.002},
      {"measurement": "clearance", "setting": "[10]", "value": 17.8, "unit": "mL/min/kg"},
      {"measurement": "IC50", "setting": "[11]", "value": 8.83, "unit": "µM"},
      {"measurement": "IC50", "setting": "[12]", "value": 0.075, "unit": "µM"},
      {"measurement": "inhibition", "setting": "[13]", "value": 33.4, "unit": "%"},
      {"measurement": "inhibition", "setting": "[14]", "value": 21, "unit": "%"},
      {"measurement": "hepatocyte CLint", "setting": "[15]", "value": 6.5, "unit": "µL/min/1e6 cells"},
      {"measurement": "inhibition", "setting": "[16]", "value": 84, "unit": "%"},
      {"measurement": "Ki", "setting": "[17]", "value": 1.09, "unit": "µM"},
      {"measurement": "IC50", "setting": "[18]", "value": 108, "unit": "µM"}
    ]}
  ]
}
